Data set [1] relates to HeLa S3 (human cervical carcinoma). Briefly: MTT cytotoxic activity assay, HeLa S3. The class given is cell-based. The settings on record: 72 h, mean ± SEM of three replicates. Here is the method:
(§1) The cytotoxic activity of the isolated compounds was evaluated using the MTT viability assay with doxorubicin as the positive control and the results are presented in Table 2.
(§2) The MTT colorimetric method was performed to evaluate cytotoxic activity of the isolated compounds against human epidermoid carcinoma (KB; ATCC CCL17), human cervical carcinoma (HeLa S3; ATCC CCL2-2), human colon adenocarcinoma (HT-29; ATCC HTB-38), human breast adenocarcinoma (MCF-7; ATCC HTB-22), and human hepatocellular carcinoma (Hep G2; ATCC HB-8065) cell lines according to the previous method. The cancer cells were cultured in MEM containing 10% fetal bovine serum in the presence of 100 U/mL penicillin and 100 μg/mL streptomycin sulphate (Gibco, Rockville, MD, USA), seeded in a 96-well plate (3000 cells/well), and pre-incubated at 37 °C for 24 h in a 5% CO2 humidified atmosphere. The tested compounds with serial concentrations (0.3–100 μM) were added and incubated for a further 72 h in the same condition. At the end of treatment, 20 µL of MTT solution (5 mg/mL in PBS, Sigma, St. Louis, MI, USA) was added to each well and further incubated for 3 h. After centrifugation at 1400 rpm for 5 min at 4 °C, the supernatant was decanted and DMSO (100 µL/well) was added to allow formazan product solubilization, which was subsequently measured by a microplate reader (Tecan Trading AG, Switzerland) at wavelength 550 nm. Control cells were treated with 0.1% DMSO. Doxorubicin (tested concentrations: 0.01–3.0 μM, Sigma) was used as the positive control. The results are expressed as the mean values of three replicates for three independent experiments. IC50 values were determined by graphical analysis using SigmaPlot 10 (Systat Software Inc., San Jose, CA, USA), obtained by plotting the cell viability percentage versus sample concentration.
In general terms: Formazan colour is commonly taken as a measure of viable cells.

Data set [2] has as its system KB (human epidermoid carcinoma). The data set is described as follows: MTT cytotoxic activity assay, KB. Conditions: 72 h, mean ± SEM of three replicates. The class given is cell-based. As to the method: as §1, §2
The target in data set [3] is T1, COX-2 (human recombinant PGHS-2) (Homo sapiens, UniProt P35354).
T1 construct: purchased Cayman Chemical Co., Ann Arbor, MI, USA
T1 sequence (P35354 18-604): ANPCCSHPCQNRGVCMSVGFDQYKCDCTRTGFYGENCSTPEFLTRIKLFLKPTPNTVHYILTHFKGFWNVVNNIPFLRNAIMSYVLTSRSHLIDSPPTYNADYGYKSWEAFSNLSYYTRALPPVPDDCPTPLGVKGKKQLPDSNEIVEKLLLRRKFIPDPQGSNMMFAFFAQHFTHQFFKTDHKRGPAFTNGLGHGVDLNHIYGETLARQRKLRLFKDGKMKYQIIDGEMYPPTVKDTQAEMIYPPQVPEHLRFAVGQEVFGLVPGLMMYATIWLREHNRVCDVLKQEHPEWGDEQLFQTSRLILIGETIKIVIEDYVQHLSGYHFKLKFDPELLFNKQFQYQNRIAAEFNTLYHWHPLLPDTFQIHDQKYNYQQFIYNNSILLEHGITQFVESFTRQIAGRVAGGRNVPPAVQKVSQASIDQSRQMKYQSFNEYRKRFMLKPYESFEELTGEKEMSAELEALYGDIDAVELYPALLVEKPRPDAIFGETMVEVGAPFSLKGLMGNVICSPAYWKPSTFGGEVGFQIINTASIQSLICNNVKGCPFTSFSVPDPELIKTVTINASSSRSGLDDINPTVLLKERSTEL
Briefly: COX-2 enzyme inhibition assay (PGE2 ELISA). The class given is biochemical. The settings on record: mean ± SD (n = 4). Here is the method: (§3) The anti-inflammatory effects of the isolated compounds were also screened on COX-1 and COX-2 enzymes inhibition at a final concentration of 20 µM.
(§4) Purified PGHS-1 from ram seminal vesicles for COX-1 and human recombinant PGHS-2 for COX-2 (Cayman Chemical Co., Ann Arbor, MI, USA) were used for the COX inhibition assays. Experiments were performed in a 96-well plate format, as previously described. Briefly, the incubation mixture contained 180 µL of 0.1 M TRIS/HCl-buffer pH 8.0 (Roth, Karlsruhe, Germany), 50 µM Na2EDTA (only for COX-2, Titriplex III, Merck, Darmstadt, Germany), 18 mM L-epinepherine bitartrate (Fluka, Buchs, Switzerland), 5 µM porcine hematin (MP Biomedicals LLC, Solon, OH, USA), and COX-1 or COX-2 enzymes (0.2 U/well). Ten microliters of tested compounds (dissolved in DMSO with a final concentration of 20 µM) was added and the mixture was pre-incubated for 5 min at room temperature. Thereafter, 10 µL of 5 µM arachidonic acid (Ann Arbor, Michigan USA) was added to the mixture and incubated for 20 min at 37 °C. The reaction was subsequently stopped by adding 10 µL of 10% (v/v) formic acid. The concentration of PGE2 generated in the reaction was quantitatively measured by a competitive PGE2 ELISA kit (Enzo Life Sciences Inc., Farmingdale, NY, USA) according to the manufacturer’s protocol and previous procedure. The absorbance at 405 nm was measured using a Hidex Sense Microplate Reader (Hidex, Turku, Finland). […] The assays were performed in duplicates and repeated in two independent experiments.
(In general: ELISA stands for enzyme-linked immunosorbent assay.)

Data set [4] concerns the target T2, COX-1 (purified PGHS-1 from ram seminal vesicles) (Ovis aries, UniProt P05979).
T2 construct: Purified PGHS-1 from ram seminal vesicles for COX-1; purchased Cayman Chemical Co., Ann Arbor, MI, USA; host or cells: ram seminal vesicles (tissue-purified)
T2 sequence (P05979 25-600): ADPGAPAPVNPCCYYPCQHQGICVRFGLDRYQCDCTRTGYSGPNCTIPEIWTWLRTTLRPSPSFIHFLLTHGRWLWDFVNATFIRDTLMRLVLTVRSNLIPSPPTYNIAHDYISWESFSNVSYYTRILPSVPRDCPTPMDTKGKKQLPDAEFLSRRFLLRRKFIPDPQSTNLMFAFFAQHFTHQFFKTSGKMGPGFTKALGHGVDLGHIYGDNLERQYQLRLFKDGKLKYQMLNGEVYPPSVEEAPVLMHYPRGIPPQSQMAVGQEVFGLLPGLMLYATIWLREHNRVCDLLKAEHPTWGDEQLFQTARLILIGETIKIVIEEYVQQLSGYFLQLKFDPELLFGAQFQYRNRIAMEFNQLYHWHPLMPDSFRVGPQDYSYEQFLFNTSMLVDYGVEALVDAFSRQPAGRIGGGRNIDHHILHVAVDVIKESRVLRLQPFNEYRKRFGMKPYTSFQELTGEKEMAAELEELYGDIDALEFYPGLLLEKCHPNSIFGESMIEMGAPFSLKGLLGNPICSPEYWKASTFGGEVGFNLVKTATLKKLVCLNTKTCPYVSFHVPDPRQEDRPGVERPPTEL
The data set is described as follows: COX-1 enzyme inhibition assay (PGE2 ELISA). In kind it is biochemical. The settings on record: mean ± SD (n = 4). Here is the method:
as §3, §4

Data set [5] has as its system NO production in LPS-IFN-γ-induced RAW 264.7 macrophages. Briefly: NO production inhibition assay (Griess), RAW 264.7. The class given is cell-based, mouse. As to the method: (§5) Compounds 1–8 were screened for their inhibitory effects on nitric oxide production in LPS-IFN-γ activated RAW 264.7 macrophages and BV-2 microglial cells at a final concentration of 50 µM. […] A deprenylated furanoxanthone structure with ortho hydroxy group in ring B as in 7 might be important to enhance the inhibitory effect when compared to 6 and 8.
(§6) The iNOS inhibitory activity of the isolated compounds and respective cytotoxicity was determined using a previously described protocol. Briefly, BV-2 mouse microglial (25,000 cells/well) and RAW 264.7 mouse macrophage (100,000 cells/well) cell lines were seeded into 96-well plates in high glucose Dulbecco’s Modified Eagle’s Medium (DMEM, Gibco) containing 4 mM L-glutamine, 10% FBS, 2% HEPES, 1% penicillin/streptomycin, and 0.5% amphotericin B. After incubation for 24 h at 37 °C in a 5% CO2 humidified atmosphere, the cells were stimulated with 0.05% LPS (Sigma) and 0.025% interferon-γ (Roche Diagnostics, Mannheim, Germany) and treated with different concentrations (5–100 μM) of the tested compounds. The level of NO production in cell culture supernatants was determined using Griess reagent (Sigma) by photocolorimetric analysis after 16 h of incubation, using a Hidex Sense Microplate Reader (Hidex, Turku, Finland). Fifty microliters of XTT reagent (Sigma, Kit II) was then added into the same plates for cell viability measurement after 60 min incubation. L-NMMA (Alexis, Grünberg, Germany) 100 µM was used as the positive control, while 1% DMSO and digitonin (Roth, Karlsruhe, Germany) 400 µM were used as the vehicle and negative control, respectively. The assays were conducted in triplicates and repeated in two independent experiments. IC50 values were determined by graphical analysis using GraphPad Prism 7 (GraphPad Software, La Jolla, CA, USA).

In data set [6] the test system is NO production in LPS-IFN-γ-induced BV-2 microglial cells. The data set is described as follows: NO production inhibition assay (Griess), BV-2. In kind it is cell-based, mouse. Here is the method: as §5, §6
In general terms: The Griess reaction detects nitrite, a stable product of nitric oxide.

Data set [7] relates to KB (human epidermoid carcinoma). Details: method as in PMID 30153471, PMID 33999337. Conditions: MTT; results based on previous work; read-out: IC50 ± SEM, KB; cited from earlier work.
Data set [8] has as its system Hep G2 (human hepatocellular carcinoma). Details: method as in PMID 30153471, PMID 33999337. Conditions: MTT; results based on previous work; read-out: IC50 ± SEM, Hep G2; cited from earlier work.
Data set [9] concerns HeLa S3 (human cervical carcinoma). Details: method as in PMID 30153471, PMID 33999337. The settings on record: MTT; results based on previous work; read-out: IC50 ± SEM, HeLa S3; cited from earlier work.
Data set [10] relates to MCF-7 (human breast adenocarcinoma). More on the design: method as in PMID 30153471, PMID 33999337. Conditions: MTT; results based on previous work; read-out: IC50 ± SEM, MCF-7; cited from earlier work.
Data set [11] concerns HT-29 (human colon adenocarcinoma). Details: method as in PMID 30153471, PMID 33999337; key to IC50 ± SEM, HT-29: IC50 ≤ 10 µM = good cytotoxicity; 10 µM < IC50 ≤ 30 µM = weak cytotoxicity; inactive (IC50 > 30 µM). The settings on record: MTT; results based on previous work; cited from earlier work.
Data set [12] can be described thus: Cytotoxicity (XTT cell viability), BV-2. In kind it is cell-based. Conditions: mouse, BV-2 microglial cells, LPS/IFN-γ-stimulated, LPS-IFN-γ-induced cells, mean ± SEM (n = 6). Here is the method:
as §5, §6

Data set [13] in a line: Cytotoxicity (XTT cell viability), RAW 264.7. The class given is cell-based. Conditions: mouse, RAW 264.7 macrophage cells, LPS/IFN-γ-stimulated, LPS-IFN-γ-induced cells, mean ± SEM (n = 6). Here is the method: as §5, §6
[14] abbreviates: final concentration of 50 µM, preliminary screen.

The values below come from publication PMC8587515, “Cytotoxic and Anti-Inflammatory Activities of Dihydroisocoumarin and Xanthone Derivatives from Garcinia picrorhiza” (Molecules, 2021).

A word on the IC50: it is the midpoint of a concentration-inhibition curve. One may read the inhibition as the drop in the measured response relative to a control, in per cent. The % Inhibition is the percentage by which the read-out fell short of the control.

Molecules are shown by their SMILES. Read-outs that look alike come from different tables or passages of the source.

For the compound `COc1c(O)ccc2c(=O)c3c(O)cc(O)cc3oc12` [Compound 13, 1,3,6-trihydroxy-5-methoxyxanthone], the IC50 in [1] was found to be 15.2 ± 1.3 µM; in data set [2], 11.4 ± 1.7 µM.

As for `COc1cc(O)c2c(=O)c3ccc(O)c(OC)c3oc2c1` [Compound 14, 1,6-dihydroxy-3,5-dimethoxyxanthone], the inhibition at 20 µM in data set [3] is under 10%; in data set [4], 18.3 ± 12.1%.

On to `[H]/N=C(/NC)NCCC[C@H](N)C(=O)O` [L-NMMA, reference compound], for which the inhibition at 100 µM in data set [5] (Mus musculus, RAW264.7, at 100 µM, read-out: inhibition of NO production, RAW 264.7 (positive control)) is 64.1%; in [6] (Mus musculus, BV-2, at 100 µM, read-out: inhibition of NO production, BV-2 (positive control)), 44.1%.

Take `O=c1c2cccc(O)c2oc2ccc(O)c(O)c12` [Compound 9, 1,2,5-trihydroxyxanthone]: the inhibition at 20 µM in data set [3] was under 10%; in data set [4], 22.6 ± 2.2%.

Consider `C[C@@H]1Oc2cc(O)c3c(=O)c4cccc(O)c4oc3c2C1(C)C` [Compound 6, pancixanthone B], for which the inhibition at 20 µM was under 10% in data set [3] and 31.2 ± 21.7% in [4]. Further, the IC50 in data set [7] is 12.1 ± 0.1 µM; in [8], 22.8 ± 0.4 µM; in [9] it was 20.7 ± 0.6 µM; in data set [10], 15.6 ± 0.3 µM. Further, the “IC50 ± SEM, HT-29” value in data set [11] is “inactive”.

Turning to `COc1c(O)cc2c(c1O)C(=O)O[C@@H](c1ccccc1O)C2` [Compound 3, 2′-hydroxyannulatomarin], the inhibition at 20 µM in data set [3] is under 10%; in data set [4], 24.2 ± 12.3%.

For the compound `CC1(C)c2c(cc3oc4ccc(O)c(O)c4c(=O)c3c2O)O[C@@H]1CO` [Compound 5, 3′-hydroxycalothorexanthone], the IC50 in data set [5] (Mus musculus, RAW264.7, LPS-IFN-γ-induced, 16 h, mean ± SEM (n = 6), read-out: IC50, iNOS (inhibition of NO production), RAW 264.7) was determined as 16.4 ± 4.5 µM; in data set [6] (Mus musculus, BV-2, LPS-IFN-γ-induced, 16 h, mean ± SEM (n = 6), read-out: IC50, iNOS (inhibition of NO production), BV-2), 13.8 ± 1.6 µM. For the same compound, the “suppression of NO production, RAW 264.7” value in [5] (setting [14]) is given as “over 70%”. The “suppression of NO production, BV-2” value in [6] (setting [14]) is reported as “over 70%”. Also, the IC50 at 16 h in [12] is 74.7 ± 2.1 µM; in [13], over 200 µM.

As for `COc1c(O)cc2c(c1O)C(=O)O[C@@H](c1ccccc1)C2` [Compound 2, (−)-annulatomarin], the “% Inhibition at 20 µM, COX-2” value in data set [3] was found to be 10.4 ± 5.0%. The inhibition at 20 µM was over 10% in data set [3] and under 10% in data set [4].
